pEC50: −log10 of the molar value.
system: HBV; assay: HBV inhibition assay: anti-HBV activity in vitro in HepG2.2.15 cells (extracellular HBV DNA by qPCR); format: cell-based; settings: Hepatitis B virus, 120 h, five days after compound treatment, extracellular HBV DNA in culture supernatant by qPCR, concentration at which HBV replication is inhibited by 50%
Outline: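 HepG2.2.15 cells (stably carrying HBV genome) treated with half-log serially diluted compounds at 0.5% DMSO final for five days. Extracellular HBV DNA in supernatant quantified by qPCR after Proteinase K digestion; EC50 is concentration giving 50% inhibition of replication.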

SMILES | pEC50
C[C@H]1Cn2ncc(N3CC4(CCC4)OC3=O)c2CN1C(=O)Nc1cc(F)c(F)c(F)c1 [Example 332, (6S)-6-methyl-3-(6-oxo-5-oxa-7-azaspiro[3.4]octan-7-yl)-N-(3,4,5-trifluorophenyl)-6,7-dihydro-4H-pyrazolo[1,5-a]pyrazine-5-carboxamide] | 7.96
C[C@H]1Cn2ncc(N3CCNC3=O)c2CN1C(=O)Nc1cc(F)c(F)c(F)c1 [Example 368, (6S)-6-methyl-3-(2-oxoimidazolidin-1-yl)-N-(3,4,5-trifluorophenyl)-6,7-dihydro-4H-pyrazolo[1,5-a]pyrazine-5-carboxamide] | 7.33
O=C(Nc1ccc(F)c(Cl)c1)N1CCn2nnc(-c3ccc(F)cc3F)c2C1 [Example 155, N-(3-chloro-4-fluoro-phenyl)-3-(2,4-difluorophenyl)-6,7-dihydro-4H-triazolo[1,5-a]pyrazine-5-carboxamide] | 7.40
CC1Cn2ncc(-c3ccc(F)cc3F)c2CN1C(=O)Nc1ccc(F)c(C#N)c1 (stereo not shown) [Example 85, N-(3-cyano-4-fluoro-phenyl)-3-(2,4-difluorophenyl)-6-methyl-6,7-dihydro-4H-pyrazolo[1,5-a]pyrazine-5-carboxamide] | 7.96
CC1CCOC(=O)N1c1cnn2c1CN(C(=O)Nc1cc(F)c(F)c(F)c1)[C@@H](C)C2 (stereo partly drawn) [Example 426, (6S)-6-methyl-3-(4-methyl-2-oxo-1,3-oxazinan-3-yl)-N-(3,4,5-trifluorophenyl)-6,7-dihydro-4H-pyrazolo[1,5-a]pyrazine-5-carboxamide] | 7.54
C[C@H]1Cn2ncc(N3CCNC3=O)c2CN1C(=O)Nc1cc(F)c(F)c(C(F)F)c1 [Example 373, (6S)—N-[3-(difluoromethyl)-4,5-difluoro-phenyl]-6-methyl-3-(2-oxoimidazolidin-1-yl)-6,7-dihydro-4H-pyrazolo[1,5-a]pyrazine-5-carboxamide] | 7.66
C[C@H]1Cn2ncc(N3CC4(CCOCC4)CC3=O)c2CN1C(=O)Nc1ccc(F)c(Cl)c1 [Example 296, (6S)—N-(3-chloro-4-fluoro-phenyl)-6-methyl-3-(3-oxo-8-oxa-2-azaspiro[4.5]decan-2-yl)-6,7-dihydro-4H-pyrazolo[1,5-a]pyrazine-5-carboxamide] | 7.52
O=C(Nc1ccc(F)c(Cl)c1)N1CCn2ncc(-c3ccc(F)cc3F)c2C1 [Example 50, N-(3-chloro-4-fluoro-phenyl)-3-(2,4-difluorophenyl)-6,7-dihydro-4H-pyrazolo[1,5-a]pyrazine-5-carboxamide] | 7.44
CC1Cn2ncc(N3CCOC3=O)c2CN1C(=O)Nc1ccc(F)c(Cl)c1 (stereo not shown) [Example 237, N-(3-chloro-4-fluoro-phenyl)-6-methyl-3-(2-oxooxazolidin-3-yl)-6,7-dihydro-4H-pyrazolo[1,5-a]pyrazine-5-carboxamide] | 7.13
C[C@H]1Cn2ncc(N3CC(CO)CC3=O)c2CN1C(=O)Nc1ccc(F)c(Cl)c1 (stereo partly drawn) [Example 298, (6S)—N-(3-chloro-4-fluoro-phenyl)-3-[4-(hydroxymethyl)-2-oxo-pyrrolidin-1-yl]-6-methyl-6,7-dihydro-4H-pyrazolo[1,5-a]pyrazine-5-carboxamide] | 6.98
CC1Cn2ncc(C3CCCC3)c2CN1C(=O)Nc1ccnc(Cl)c1 (stereo not shown) [Example 96, N-(2-chloro-4-pyridyl)-3-cyclopentyl-6-methyl-6,7-dihydro-4H-pyrazolo[1,5-a]pyrazine-5-carboxamide] | 7.14
C[C@H]1Cn2ncc(N3CCOCC3=O)c2CN1C(=O)Nc1cc(F)c(F)c(F)c1 [Example 233, (6S)-6-methyl-3-(3-oxomorpholin-4-yl)-N-(3,4,5-trifluorophenyl)-6,7-dihydro-4H-pyrazolo[1,5-a]pyrazine-5-carboxamide] | 7.12
C[C@H]1Cn2ncc(N3CC(c4ccc(F)cn4)OC3=O)c2CN1C(=O)Nc1cc(F)c(F)c(F)c1 (stereo partly drawn) [Example 410, (6S)-3-[5-(5-fluoro-2-pyridyl)-2-oxo-oxazolidin-3-yl]-6-methyl-N-(3,4,5-trifluorophenyl)-6,7-dihydro-4H-pyrazolo[1,5-a]pyrazine-5-carboxamide] | 7.43
C[C@H]1Cn2ncc(N3CC(C)(C)OC3=O)c2CN1C(=O)Nc1ccnc(C(F)F)c1 [Example 272, (6S)—N-[2-(difluoromethyl)-4-pyridyl]-3-(5,5-dimethyl-2-oxo-oxazolidin-3-yl)-6-methyl-6,7-dihydro-4H-pyrazolo[1,5-a]pyrazine-5-carboxamide] | 6.98
C[C@H]1Cn2ncc(N3CC(C#N)CC3=O)c2CN1C(=O)Nc1ccc(F)c(Cl)c1 (stereo partly drawn) [Example 229, (6S)—N-(3-chloro-4-fluoro-phenyl)-3-(4-cyano-2-oxo-pyrrolidin-1-yl)-6-methyl-6,7-dihydro-4H-pyrazolo[1,5-a]pyrazine-5-carboxamide] | 7.33
O=C(Nc1ccc(F)c(Cl)c1)N1CCn2ncc(N3CC4CC4C3)c2C1 (stereo not shown) [Example 215, 3-[3-azabicyclo[3.1.0]hexan-3-yl]-N-(3-chloro-4-fluoro-phenyl)-6,7-dihydro-4H-pyrazolo[1,5-a]pyrazine-5-carboxamide] | 7.00

SMILES | pEC50
C[C@H]1[C@H](C)n2ncc(N3CCNC3=O)c2CN1C(=O)Nc1cc(F)c(F)c(F)c1 [Example 273, (6S,7S)-6,7-dimethyl-3-(2-oxoimidazolidin-1-yl)-N-(3,4,5-trifluorophenyl)-6,7-dihydro-4H-pyrazolo[1,5-a]pyrazine-5-carboxamide] | 7.41
CC1Cn2ncc(-c3ccc(F)cn3)c2CN1C(=O)Nc1ccc(F)c(C2CC2)c1 (stereo not shown) [Example 157, N-(3-cyclopropyl-4-fluoro-phenyl)-3-(5-fluoro-2-pyridyl)-6-methyl-6,7-dihydro-4H-pyrazolo[1,5-a]pyrazine-5-carboxamide] | 7.08
C[C@H]1Cn2ncc(N3CCCC3=O)c2CN1C(=O)Nc1cc(F)c(F)c(Cl)c1 [Example 231, (6S)—N-(3-chloro-4,5-difluoro-phenyl)-6-methyl-3-(2-oxopyrrolidin-1-yl)-6,7-dihydro-4H-pyrazolo[1,5-a]pyrazine-5-carboxamide] | 7.60
CCOC(=O)N1CC2(CC(=O)N(c3cnn4c3CN(C(=O)Nc3cc(F)c(F)c(F)c3)[C@@H](C)C4)C2)C1 [Example 334, ethyl 6-[(6S)-6-methyl-5-[(3,4,5-trifluorophenyl)carbamoyl]-6,7-dihydro-4H-pyrazolo[1,5-a]pyrazin-3-yl]-7-oxo-2,6-diazaspiro[3.4]octane-2-carboxylate] | 7.66
O=C(Nc1ccc(F)c(C2CC2)c1)N1CCn2ncc(-c3ccc(F)cc3F)c2C1 [Example 150, N-(3-cyclopropyl-4-fluoro-phenyl)-3-(2,4-difluorophenyl)-6,7-dihydro-4H-pyrazolo[1,5-a]pyrazine-5-carboxamide] | 7.24
CC1Cn2ncc(N3CCCC3=O)c2CN1C(=O)Nc1ccc(F)c(C(F)(F)F)c1 (stereo not shown) [Example 203, N-[4-fluoro-3-(trifluoromethyl)phenyl]-6-methyl-3-(2-oxopyrrolidin-1-yl)-6,7-dihydro-4H-pyrazolo[1,5-a]pyrazine-5-carboxamide] | 7.01
C[C@H]1Cn2ncc(N3C(=O)COC[C@@H]3C)c2CN1C(=O)Nc1cc(F)c(F)c(F)c1 [Example 372, (6S)-6-methyl-3-[(3S)-3-methyl-5-oxo-morpholin-4-yl]-N-(3,4,5-trifluorophenyl)-6,7-dihydro-4H-pyrazolo[1,5-a]pyrazine-5-carboxamide] | 7.30
CC1COC(=O)N(c2cnn3c2CN(C(=O)Nc2cc(F)c(F)c(F)c2)[C@@H](C)C3)C1 (stereo partly drawn) [Example 278, (6S)-6-methyl-3-(5-methyl-2-oxo-1,3-oxazinan-3-yl)-N-(3,4,5-trifluorophenyl)-6,7-dihydro-4H-pyrazolo[1,5-a]pyrazine-5-carboxamide] | 7.57
COC1CC(=O)N(c2cnn3c2CN(C(=O)Nc2ccc(F)c(Cl)c2)[C@@H](C)C3)C1 (stereo partly drawn) [Example 238, (6S)—N-(3-chloro-4-fluoro-phenyl)-3-(4-methoxy-2-oxo-pyrrolidin-1-yl)-6-methyl-6,7-dihydro-4H-pyrazolo[1,5-a]pyrazine-5-carboxamide] | 7.68
C[C@H]1Cn2ncc(N3CC4(CC3=O)CN(C(=O)c3ncco3)C4)c2CN1C(=O)Nc1cc(F)c(F)c(F)c1 [Example 336, (6S)-6-methyl-3-[2-(oxazole-2-carbonyl)-7-oxo-2,6-diazaspiro[3.4]octan-6-yl]-N-(3,4,5-trifluorophenyl)-6,7-dihydro-4H-pyrazolo[1,5-a]pyrazine-5-carboxamide] | 7.18
Cc1cc(NC(=O)N2CCn3ncc(-c4ccc(F)cc4)c3C2)ccn1 [Example 176, 3-(4-fluorophenyl)-N-(2-methyl-4-pyridyl)-6,7-dihydro-4H-pyrazolo[1,5-a]pyrazine-5-carboxamide] | 7.28
CC1Cn2ncc(N3CCCC3=O)c2CN1C(=O)Nc1cc(F)c(F)c(F)c1 (stereo not shown) [Example 183, 6-methyl-3-(2-oxopyrrolidin-1-yl)-N-(3,4,5-trifluorophenyl)-6,7-dihydro-4H-pyrazolo[1,5-a]pyrazine-5-carboxamide] | 7.17
CC1CN(c2cnn3c2CN(C(=O)Nc2ccc(F)c(Cl)c2)[C@@H](C)C3)C(=O)N1 (stereo partly drawn) [Example 326, (6S)—N-(3-chloro-4-fluoro-phenyl)-6-methyl-3-(4-methyl-2-oxo-imidazolidin-1-yl)-6,7-dihydro-4H-pyrazolo[1,5-a]pyrazine-5-carboxamide] | 7.34
C[C@H]1Cn2ncc(-c3ccc(F)cn3)c2CN1C(=O)Nc1cc(F)c(F)c(F)c1 [Example 198, (6S)-3-(5-fluoro-2-pyridyl)-6-methyl-N-(3,4,5-trifluorophenyl)-6,7-dihydro-4H-pyrazolo[1,5-a]pyrazine-5-carboxamide] | 7.52
Cc1noc(C2(C)CC(=O)N(c3cnn4c3CN(C(=O)Nc3cc(F)c(F)c(F)c3)[C@@H](C)C4)C2)n1 (stereo partly drawn) [Example 405, (6S)-6-methyl-3-[4-methyl-4-(3-methyl-1,2,4-oxadiazol-5-yl)-2-oxo-pyrrolidin-1-yl]-N-(3,4,5-trifluorophenyl)-6,7-dihydro-4H-pyrazolo[1,5-a]pyrazine-5-carboxamide] | 8.00
